# Test system: Ba/F3 cells (IL-3 dependent murine pro-B cell line)
# Experiment: Proliferation assay (MTT), parental Ba/F3 cells
# Assay type: cell-based
# Conditions: Mus musculus, 48 h, drug concentrations 0.005-10 μM, read-out: BaF3
# Experimental: Interleukin-3 (IL-3) dependent murine pro-B cell line, Ba/F3, and murine myeloid precursor cell line, 32D, were maintained in RPMI-1640 medium supplemented with L-Glutamine, 10% FBS and 10 U/ml recombinant murine IL-3 (Roche). Mo7e human megakarioblastic cell line was grown in RPMI-1640 medium supplemented with L-Glutamine, 20% FBS and 5 ng/ml recombinant human granulocyte macrophage cell stimulating factor (GM-CSF) (R&D Systems) or 200 ng/ml stem cell factor (SCF) (Biosource).
# (§1) Cells (0.3-0.6×10^6/ml) were plated in duplicate or triplicate in 96-well plates containing increasing drug concentrations (0.005-10 μM). After incubation at 37° C. in 5% CO2 for 48 h, the effect of the compounds on cell viability was determined by MTT (Promega) colorimetric dye reduction method. Inhibition of cell proliferation was calculated as a percentage of growth of DMSO treated cells, and IC50 values were determined with Microsoft Excel XLfit3.
row,Structure (SMILES),IC50
1,FC(F)(F)Oc1ccc(Nc2ncnc3[nH]ncc23)cc1,> 10 µM
2,CCn1ncc2c(Nc3ccc(OC(F)(F)F)cc3)ncnc21,> 10 µM
3,CCn1cc2c(Nc3ccc(OC(F)(F)F)cc3)ncnc2n1,> 10 µM
4,CCS(=O)(=O)n1ncc2c(Nc3ccc(OC(F)(F)F)cc3)ncnc21,7 µM
5,FC(F)(F)Oc1ccc(Nc2ncnc3c2cnn3C2CCCCC2)cc1,9.3 µM
6,FC(F)(F)Oc1ccc(Nc2ncnc3nn(C4CCCCC4)cc23)cc1,> 10 µM
7,NC(=O)Cn1ncc2c(Nc3ccc(OC(F)(F)F)cc3)ncnc21,> 10 µM
8,NC(=O)Cn1cc2c(Nc3ccc(OC(F)(F)F)cc3)ncnc2n1,> 3.3 µM
9,NC(=O)CCn1ncc2c(Nc3ccc(OC(F)(F)F)cc3)ncnc21,8.7 µM
10,FC(F)(F)Oc1ccc(Nc2ncnc3c2cnn3CC2CCOC2)cc1 (centres unmarked),> 10 µM
11,FC(F)(F)Oc1ccc(Nc2ncnc3nn(CC4CCOC4)cc23)cc1 (centres unmarked),> 10 µM
12,CN(C)CC(C#N)n1ncc2c(Nc3ccc(OC(F)(F)F)cc3)ncnc21 (centres unmarked),> 10 µM
13,CCCCn1ncc2c(Nc3ccc(OC(F)(F)F)cc3)ncnc21,6.6 µM
14,CCCCn1cc2c(Nc3ccc(OC(F)(F)F)cc3)ncnc2n1,> 10 µM
15,CC(C)(C)n1ncc2c(Nc3ccc(OC(F)(F)F)cc3)ncnc21,7.3 µM
16,FC(F)(F)Cn1ncc2c(Nc3ccc(OC(F)(F)F)cc3)ncnc21,> 10 µM
17,FC(F)(F)Cn1cc2c(Nc3ccc(OC(F)(F)F)cc3)ncnc2n1,8 µM
18,FC(F)(F)Oc1ccc(Nc2ncnc3c2cnn3Cc2ccccc2)cc1,> 10 µM
19,FC(F)(F)Oc1ccc(Nc2ncnc3nn(Cc4ccccc4)cc23)cc1,> 10 µM
20,FC(F)(F)Oc1ccc(Nc2ncnc3c2cnn3CCc2ccccc2)cc1,> 10 µM
21,FC(F)(F)Oc1ccc(Nc2ncnc3nn(CCc4ccccc4)cc23)cc1,> 10 µM
22,Fc1cc(Cn2cc3c(Nc4ccc(OC(F)(F)F)cc4)ncnc3n2)ccc1C(F)(F)F,4.6 µM

row,Structure (SMILES),IC50
1,FC(F)(F)Oc1ccc(Nc2ncnc3nn(Cc4cccc(Br)c4)cc23)cc1,> 10 µM
2,Oc1cccc(Cn2cc3c(Nc4ccc(OC(F)(F)F)cc4)ncnc3n2)c1,6.9 µM
3,FC(F)(F)Oc1ccc(Nc2ncnc3nn(Cc4cccnc4)cc23)cc1,2.1 µM
4,FC(F)(F)Oc1ccc(Nc2ncnc3c2cnn3Cc2ccccn2)cc1,> 10 µM
5,FC(F)(F)Oc1ccc(Nc2ncnc3c2cnn3Cc2ccncc2)cc1,> 10 µM
6,O=C1c2ccccc2C(=O)N1CCn1ncc2c(Nc3ccc(OC(F)(F)F)cc3)ncnc21,> 10 µM
7,NCCn1ncc2c(Nc3ccc(OC(F)(F)F)cc3)ncnc21,> 10 µM
8,FC(F)(F)Oc1ccc(Nc2ncnc3c2cnn3-c2cc(C(F)(F)F)ccn2)cc1,> 10 µM
9,FC(F)(F)Oc1ccc(Nc2ncnc3nn(-c4cc(C(F)(F)F)ccn4)cc23)cc1,> 10 µM
10,Cc1cccc(-n2ncc3c(Nc4ccc(OC(F)(F)F)cc4)ncnc32)c1C,> 10 µM
11,Cc1cccc(-n2cc3c(Nc4ccc(OC(F)(F)F)cc4)ncnc3n2)c1C,> 10 µM
12,Fc1ccccc1-n1ncc2c(Nc3ccc(OC(F)(F)F)cc3)ncnc21,> 10 µM
13,Fc1ccccc1-n1cc2c(Nc3ccc(OC(F)(F)F)cc3)ncnc2n1,> 10 µM
14,FC(F)(F)Oc1ccc(Nc2ncnc3c2cnn3-c2ccc(Cl)cc2Cl)cc1,> 10 µM
15,FC(F)(F)Oc1ccc(Nc2ncnc3nn(-c4ccc(Cl)cc4Cl)cc23)cc1,> 10 µM
16,CCc1ccccc1-n1ncc2c(Nc3ccc(OC(F)(F)F)cc3)ncnc21,> 10 µM
17,CCc1ccccc1-n1cc2c(Nc3ccc(OC(F)(F)F)cc3)ncnc2n1,> 10 µM
18,NS(=O)(=O)c1cccc(-n2ncc3c(Nc4ccc(OC(F)(F)F)cc4)ncnc32)c1,1.8 µM
19,Cn1cnc2ncnc(Nc3ccc(OC(F)(F)F)cc3)c21,> 10 µM
20,OC[C@H]1OC(n2cnc3c(Nc4ccc(OC(F)(F)F)cc4)ncnc32)[C@H](O)[C@@H]1O (some centres unmarked),> 10 µM
21,FC(F)(F)Oc1ccc(Nc2ncnc3c2ncn3CCN2CCOCC2)cc1,> 10 µM
22,OC[C@H]1OC(n2ccc3c(Nc4ccc(OC(F)(F)F)cc4)ncnc32)[C@H](O)[C@@H]1O (some centres unmarked),> 10 µM

row,Structure (SMILES),IC50
1,OCCn1ccc2c(Nc3ccc(OC(F)(F)F)cc3)ncnc21,> 10 µM
2,COc1ccc(Cn2ccc3c(Nc4ccc(OC(F)(F)F)cc4)ncnc32)cc1,> 10 µM
3,COCCCNC(=O)CCn1ccc2c(Nc3ccc(OC(F)(F)F)cc3)ncnc21,> 10 µM
4,Cn1c(C(=O)N2CCC(Br)CC2)cc2c(Nc3ccc(OC(F)(F)F)cc3)ncnc21,> 10 µM
5,CCOC(=O)C1CCCN(C(=O)c2cc3c(Nc4ccc(OC(F)(F)F)cc4)ncnc3n2C)C1 (centres unmarked),> 10 µM
6,Cn1c(C(=O)N2CCCC(CO)C2)cc2c(Nc3ccc(OC(F)(F)F)cc3)ncnc21 (centres unmarked),7.29 µM
7,Cn1c(C(=O)N2CCC3(CC2)C(=O)NCN3c2ccccc2)cc2c(Nc3ccc(OC(F)(F)F)cc3)ncnc21,> 10 µM
8,COC[C@H]1CCCN1C(=O)c1cc2c(Nc3ccc(OC(F)(F)F)cc3)ncnc2n1C,> 10 µM
9,CCNC(=O)c1cc2c(Nc3ccc(OC(F)(F)F)cc3)ncnc2n1C,5.37 µM
10,OCc1cc2c(Nc3ccc(OC(F)(F)F)cc3)ncnc2s1,> 10 µM
11,CCNC(=O)c1cc2c(Nc3ccc(OC(F)(F)F)cc3)ncnc2s1,> 10 µM
12,CN(C)C1CCN(Cc2cc3c(Nc4ccc(OC(F)(F)F)cc4)ncnc3s2)C1 (centres unmarked),> 10 µM
13,O=C(c1cc2c(Nc3ccc(OC(F)(F)F)cc3)ncnc2s1)N1CCN(N2CCCC2)CC1,5.77 µM
14,COC1CCN(C(=O)c2cc3c(Nc4ccc(OC(F)(F)F)cc4)ncnc3s2)CC1,> 10 µM
15,CCOC(=O)Cc1cnc(NC(=O)c2ccc3c(Nc4ccc(OC(F)(F)F)cc4)ncnc3c2)s1,> 10 µM
16,CN(C)C1CCN(C(=O)c2ccc3c(Nc4ccc(OC(F)(F)F)cc4)ncnc3c2)C1 (centres unmarked),> 10 µM
17,CN1CCCN(C(=O)c2ccc3c(Nc4ccc(OC(F)(F)F)cc4)ncnc3c2)CC1,6.98 µM
18,O=C(c1ccc2c(Nc3ccc(OC(F)(F)F)cc3)ncnc2c1)N1CCC(O)CC1,> 10 µM
19,O=C(c1ccc2c(Nc3ccc(OC(F)(F)F)cc3)ncnc2c1)N1CCC(Br)CC1,7.42 µM
20,NC(=O)C1CCN(C(=O)c2ccc3c(Nc4ccc(OC(F)(F)F)cc4)ncnc3c2)CC1,> 10 µM
21,O=C(c1ccc2c(Nc3ccc(OC(F)(F)F)cc3)ncnc2c1)N1CCCC(CO)C1 (centres unmarked),> 10 µM
22,O=C1Cc2c(ncnc2Nc2ccc(OC(F)(F)F)cc2)N1,> 10 µM

row,Structure (SMILES),IC50
1,CN1C(=O)Cc2c(Nc3ccc(OC(F)(F)F)cc3)ncnc21,> 10 µM
2,Cc1c(Nc2ccc(OC(F)(F)F)cc2)ncnc1-c1ccc(S(N)(=O)=O)cc1,> 10 µM
3,CC(C)S(=O)(=O)c1ccc(-c2cc(Nc3ccc(OC(F)(F)F)cc3)ncn2)cc1,> 10 µM
4,CCN(CC)S(=O)(=O)c1ccc(-c2ncnc(Nc3ccc(OC(F)(F)F)cc3)c2C)cc1,> 10 µM
5,CCS(=O)(=O)Nc1ccc(-c2cc(Nc3ccc(OC(F)(F)F)cc3)ncn2)cc1,8.31 µM
6,CCCCS(=O)(=O)Nc1ccc(-c2cc(Nc3ccc(OC(F)(F)F)cc3)ncn2)cc1,8.92 µM
7,CC(C)S(=O)(=O)Nc1ccc(-c2cc(Nc3ccc(OC(F)(F)F)cc3)ncn2)cc1,6.93 µM
8,COCCCNC(=O)c1ccc(-c2ncnc(Nc3ccc(OC(F)(F)F)cc3)c2C)cc1,3.11 µM
9,FC(F)(F)Oc1ccc(Nc2cc(Nc3cc(C4CC4)[nH]n3)ncn2)cc1,5.62 µM
10,FC(F)(F)Oc1ccc(Nc2cc(Nc3nccn3-c3cccc(C(F)(F)F)c3)ncn2)cc1,2.56 µM
11,Cn1cc(-c2cc(Nc3ccc(OC(F)(F)F)cc3)ncn2)cn1,> 10 µM
12,Cc1c(Nc2ccc(OC(F)(F)F)cc2)ncnc1-c1cnn(CC(C)C)c1,1.46 µM
13,FC(F)(F)Oc1ccc(Nc2cc(-c3cc(NCCN4CCOCC4)ncn3)ncn2)cc1,> 10 µM
14,Cc1c(Nc2ccc(OC(F)(F)F)cc2)ncnc1-c1cnn(C)c1,> 10 µM
15,Cc1c(Nc2ccc(OC(F)(F)F)cc2)ncnc1-c1cnn(Cc2ccccc2)c1,9.9 µM
16,FC(F)(F)Oc1ccc(Nc2cc(-c3cnn(Cc4cccnc4)c3)ncn2)cc1,> 10 µM
17,O=Cc1cnc2c(ccn2CCN2CCOCC2)c1Nc1ccc(OC(F)(F)F)cc1Br,> 10 µM
18,"O=[N+]([O-])c1cccc(-c2cn3cnc(Nc4ccc(OC(F)(F)F)cc4)cc3n2)c1 [2-(3-nitrophenyl)-N-(4-(trifluoromethoxy)phenyl)imidazo[1,2-c]pyrimidin-7-amine]",9.6 µM
19,"OCCn1ncc2c(Nc3ccc(OC(F)(F)F)cc3)ncnc21 [2-(4-(4-(trifluoromethoxy)phenylamino)-1H-pyrazolo[3,4-d]pyrimidin-1-yl)ethanol]",> 10 µM
20,"OCCn1cc2c(Nc3ccc(OC(F)(F)F)cc3)ncnc2n1 [2-(4-(4-(trifluoromethoxy)phenylamino)-2H-pyrazolo[3,4-d]pyrimidin-2-yl)ethanol]",> 10 µM

# Target: Bcr-abl T315I (Ba/F3.p210^T315I cells) (Homo sapiens, UniProt P00519, T315I, cells depend on it)
# Experiment: Proliferation assay (MTT), T315I mutant Bcr-abl expressing Ba/F3 cells
# Assay type: cell-based, murine
# Conditions: 48 h, drug concentrations 0.005-10 μM
# Description: Wild type Bcr-abl expressing 32D (32D.p210) and Ba/F3 (Ba/F3.p210) cells, and mutant Bcr-abl expressing cell lines Ba/F3.p210^G250E, Ba/F3.p210^E255V, Ba/F3.p210^T315I, Ba/F3.p210^F317L and Ba/F3.p210^M351T, as well as Ba/F3 cells transformed with Flt-3-ITD kinase. Additional assays included Ba/F3 cells expressing the fusion protein kinases TEL-PDGFRβ, TEL-JAK1, NPM-ALK, TEL-cKit, Tel-Bmx, Tel-FGR3, Tel-Lck and Ba/F3.TPR-met cells. All the above cell lines were maintained in RPMI-1640 medium with L-Glutamine, 10% FBS and 1 mg/ml geneticin (Gibco).
# as §1
row,Structure (SMILES),IC50
1,CCNC(=O)c1cc2c(Nc3ccc(OC(F)(F)F)cc3)ncnc2s1,> 10 µM
2,CN(C)C1CCN(Cc2cc3c(Nc4ccc(OC(F)(F)F)cc4)ncnc3s2)C1 (centres unmarked),> 10 µM
3,O=C(NCCN1CCOCC1)c1cc2c(Nc3ccc(OC(F)(F)F)cc3)ncnc2s1 [drawing 332],> 10 µM
